From patent publication US20070099276A1, “Retrovirus-like particles and retroviral vaccines” (priority 2003, published 2007)

Biological target: HIV protease (Human immunodeficiency virus type 1 group M subtype B, UniProt P12497)
Type: cell-based, HIV-1
Procedure: Retrovirus-like particles and virions were isolated by centrifugation through a 20% sucrose pad in a SW28.1Ti rotor (Beckman-Coulter, Inc., Fullerton, Calif.) at 120,000 g at 4° C. for 1 hour. Immunoblot analyses of retrovirus-like particles and virion preparations (the equivalent of 10% of the transfection supernatant) were performed as previously described, using peroxidase-conjugated secondary antibodies and developed with the Enhanced ChemiLuminescence reagent (Amersham Life Science, Arlington Heights, Ill.). Rabbit antiserum against p6Gag (DJ-30552) and goat antiserum against, p7NC (#77), p17MA (#83), or p24CA (#81) were obtained from the AIDS Vaccine Program. Monoclonal antibody against reverse transcriptase was obtained from Perkin Elmer/NEN Life Science. N-terminal protein sequence analysis was carried out on an Applied Biosystems Procise model 494 microsequencer (Foster City, Calif.) as previously described (Chertova et al., J. Virol., 76:5315 (2002)). Micro-scale high-pressure liquid chromatography (HPLC) was performed as previously described (Chertova et al., J. Virol. 76:5315 (2002)). Matrix-assisted laser desorption/ionization-time-of-flight (MALDI) mass spectrometry was carried out as previously described (Ott et al., J. Virol., 73:19 (1999)) using a Kratos Kompact Probe (Kratos Analytical Inc., Chestnut Ridge, N.Y.).
To examine protease activity and mutant budding in another way, 293T cells were transfected with pNL4-3 or DelNC and then treated without or with 10 nM of the protease inhibitor Saquinavir for 24 hours.

CC(C)(C)NC(=O)[C@@H]1C[C@@H]2CCCC[C@@H]2CN1C[C@@H](O)[C@H](Cc1ccccc1)NC(=O)[C@H](CC(N)=O)NC(=O)c1ccc2ccccc2n1 [Saquinavir]
effect on DelNC Gag processing: essentially eliminated
effect on amount of pNL4-3 virions in the medium: not largely increased
effect on cleavage of NL4-3 Gag: only a slight reduction
effect on production of DelNC retrovirus-like particles: increased
